Legend:
[1] = tested on: TrkA/CD44 complex in COS-7 cells transfected with TrkA and CD44s or CD44v6; assay: PLA TrkA/CD44s or TrkA/CD44v6 complex formation in COS-7 cells; type: cell-based, African green monkey (COS-7 cells); settings: NGF 100 ng/ml, 0, 5 or 30 min
Procedure: Cells (10,000 cells per well) were grown on acid-washed eight-well glass slides (Thermo Scientific) in the appropriate medium supplemented with 10% FBS for 24 h. After NGF treatment, paraformaldehyde (PAF)-fixed cells were incubated with 4% bovine serum albumin (BSA) or 5% FBS (for 1 h at 20 °C), followed by overnight incubation with primary antibodies (rabbit anti-TrkA or rabbit anti-IgG + mouse anti-pan-CD44; mouse anti-CD44v3; mouse anti-CD44v6; mouse anti-IgG2a; mouse anti-IgG2b; or mouse anti-IgG1). PLA was performed following the manufacturer’s instructions in the assay kit (Duolink PLA; Sigma–Aldrich). To obtain the correct representation of the PLA signal for each condition, 30 fields per condition were observed using a fluorescence microscope (Eclipse TiU; Nikon, Japan). The PLA signals (red dots) were automatically quantified using ImageJ software (with an in-house-developed plug-in). […]
Supplementary file 13046_2022_2314_MOESM3_ESM.pdf: Additional file 3: Supplementary Figure 1. […] The expression of all CD44 isoforms (A), CD44 variant 3 (B), CD44 variant 6 (C) and TrkA ([…]; D) was evaluated by RT–qPCR (normalized using PUM-1). No expression of CD44, CD44 variants [3 or 6] or TrkA was detected in COS-7 cells (A-D) compared with that in cells transfected with the expression plasmid carrying each protein. […]

[2] = tested on: SUM-159-PT cells; assay: Clonogenicity assay, SUM-159-PT; type: cell-based; settings: Supplementary Fig. 9 A & B (P4; same observations = colony forming units reduced as in MDA-MB-231), Supplementary Fig. 10 B (siCD44v3)
[3] = tested on: SUM-159-PT cells; assay: Scratch/wound migration assay, SUM-159-PT; type: cell-based; settings: 24 h after treatment; Supplementary Fig. 9 C & D; effects as in MDA-MB-231 (inhibition of NGF-induced migration)

| Substance | effect on TrkA/CD44s or TrkA/CD44v6 complex formation (PLA) in COS-7 cells [1] | effect on clonogenic growth of SUM-159-PT cells [2] | effect on migration of SUM-159-PT cells [3] |
| --- | --- | --- | --- |
| NGF: recombinant human β-NGF (Alomone Labs, Israel) | Neither wild-type COS-7 cells nor COS-7 cells transfected with TrkA and the CD44s or CD44v6 isoform showed the formation of the dynamic TrkA/CD44 complex in PLA | – | – |
| IDDDEDFISST [Peptide 4, mimetic peptide 4 (…) corresponding to the C-terminal region of CD44v3] | – | The same observations were made in SUM-159PT | We also confirmed the effects of CD44v3 mimetic peptide 4 on migration in SUM-159-PT cells |

— publication PMC8962522, “Direct interaction of TrkA/CD44v3 is essential for NGF-promoted aggressiveness of breast cancer cells” (Journal of Experimental & Clinical Cancer Research : CR, 2022)
